Reference: patent publication US8198279B2, “Pyrido[2,3-b]pyrazin-8-substituted compounds and their use” (Institute of Cancer Research: Royal Cancer Hospital (The), priority 2007, dated 2012)
“And” between values parts separate entries of the source, which are not always exact repeats. Identical values can stand only once.

target: T1, B-RAF (Homo sapiens, UniProt P15056, V600E); assay: DELFIA Kinase Assay; type: biochemical; settings: 100 μM ATP, GST-MEK substrate
T1 construct: made in house
Protocol: Biological Methods—DELFIA Kinase Assay
Compounds were assessed by a kinase assay performed according to the following protocol.
DKB1 (DKB with B-RAF and MEK Protein):
Combine 4950 μL of DKB and 50 μL of 2.5 mg/ml GST-MEK stock (to give […] of MEK per 40 μL). Then add 22.5 μL of B-RAF to give ˜0.2 μL of B-RAF per 40 μL.
100 mM stock, dilute to 500 μM to give 100 μM final concentration in assay.
• 1. Preblock wells with 5% milk in TBS for 1 hour. • 2. Wash wells with 3× with 200 μL TBS. • 3. Plate out 40 μL of DKB1 for all inhibitors (test compounds), DMSO control, and optionally other control compounds. • 4. Plate out 40 μL of DKB2 for BO and EV wells. • 5. Add inhibitors (test compounds) at 0.5 μL per well according to desired plate layout. • 6. Add 0.5 μL DMSO to vehicle control wells. • 7. Add 2 μL of B-RAF to BO and EV wells. • 8. Pre-incubate with inhibitors (test compounds) for 10 minutes at room temperature with shaking. • 9. Add 10 μL of 500 μM ATP stock, in DKB, to give 100 μM assay concentration. • 10. Seal plates with TopSeal and incubate at room temperature with shaking for 45 minutes. • 11. Wash plates 3× with 200 μL 0.1% Tween20/Water to terminate reaction. • 12. Add 50 μL per well of antibody mix and incubate for 1 hour at room temperature with shaking. • 13. Wash plates 3× with 200 μL 0.1% Tween20/Water. • 14. Add 100 μL DELFIA enhancement solution per well, cover in foil, and incubate at room temperature for 30 minutes with shaking. • 15. Read on Victor using Europium protocol.
Values for the blank (Empty Vector) are subtracted from all values. The DMSO controls are set as 100% activity and assay points (the response) are calculated as a percentage of the DMSO control. Data are plotted using Graphpad Prism software and a non-linear regression line is calculated using a variable slope sigmoidal dose-response equation (Y=Bottom+(Top−Bottom)/(1+10^((LogEC50−X)*HillSlope)) where X is the logarithm of concentration. Y is the response). The IC50 generated by this procedure is the concentration of the drug that produces a percentage control fluorescence value midway between the saturation, and zero-effect plateaus. Three independent assays are usually performed and the mean IC50 is reported.

T1 sequence (P15056 whole entry V600E): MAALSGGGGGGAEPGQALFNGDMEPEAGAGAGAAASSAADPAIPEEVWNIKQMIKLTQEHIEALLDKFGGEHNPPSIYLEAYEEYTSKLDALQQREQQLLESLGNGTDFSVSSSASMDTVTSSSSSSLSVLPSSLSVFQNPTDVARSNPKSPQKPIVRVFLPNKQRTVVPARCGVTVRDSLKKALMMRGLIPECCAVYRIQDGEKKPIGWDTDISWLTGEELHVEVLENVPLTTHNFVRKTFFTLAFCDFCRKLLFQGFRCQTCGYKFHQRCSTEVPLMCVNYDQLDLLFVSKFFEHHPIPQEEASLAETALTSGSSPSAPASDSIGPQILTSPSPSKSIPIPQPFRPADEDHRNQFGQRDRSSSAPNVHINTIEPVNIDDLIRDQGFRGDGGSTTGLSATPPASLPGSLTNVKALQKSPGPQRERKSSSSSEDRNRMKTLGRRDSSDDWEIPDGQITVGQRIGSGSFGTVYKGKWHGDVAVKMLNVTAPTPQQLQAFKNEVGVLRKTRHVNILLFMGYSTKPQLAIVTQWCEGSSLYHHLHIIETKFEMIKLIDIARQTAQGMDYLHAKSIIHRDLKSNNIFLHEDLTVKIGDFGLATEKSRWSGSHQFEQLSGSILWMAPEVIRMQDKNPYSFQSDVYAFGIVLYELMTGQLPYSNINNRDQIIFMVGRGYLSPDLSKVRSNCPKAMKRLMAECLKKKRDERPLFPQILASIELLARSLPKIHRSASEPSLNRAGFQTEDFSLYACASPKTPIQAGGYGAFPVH

**Q.** With `CC(C)(C)c1cc(NC(=O)c2cccc(Oc3ccnc4[nH]c(=O)cnc34)c2)n(-c2ccccc2)n1` [AA-001, N-(3-tert-butyl-1-phenyl-1H-pyrazol-5-yl)-3-(3-oxo-3,4-dihydropyrido[2,3-b]pyrazin-8-yloxy)benzamide] as the molecule, how does the IC50 read?
**A.** The IC50 was < 1000 nM and 100 to 1000 nM.

**Q.** With `O=C(Nc1cccc(Oc2ccnc3[nH]c(=O)cnc23)c1)c1cccc(OC(F)(F)F)c1` [AA-002, N-(3-(3-oxo-3,4-dihydropyrido[2,3-b]pyrazin-8-yloxy)phenyl)-3-(trifluoro-methoxy)benzamide] as the molecule, how does the IC50 read?
**A.** Its IC50 is less than 100 nM.

**Q.** Which IC50 does the source give for `CC(C)(C)c1cccc(C(=O)Nc2cccc(Oc3ccnc4[nH]c(=O)cnc34)c2)c1` [AA-003, 3-tert-butyl-N-(3-(3-oxo-3,4-dihydropyrido[2,3-b]pyrazin-8-yloxy)phenyl)benzamide] here?
**A.** The IC50 was less than 100 nM.

**Q.** `Cc1nc2c(Oc3cccc(NC(=O)c4cccc(OC(F)(F)F)c4)c3)ccnc2[nH]c1=O` [AA-004] was tested. Which IC50 did it give?
**A.** The IC50 was less than 100 nM.

**Q.** How did the IC50 turn out when `Cc1nc2c(Oc3cccc(NC(=O)c4cccc(C(C)(C)C)c4)c3)ccnc2[nH]c1=O` [AA-005, 3-tert-butyl-N-(3-(2-methyl-3-oxo-3,4-dihydropyrido[2,3-b]pyrazin-8-yloxy)phenyl)benzamide] was run?
**A.** Its IC50 is less than 100 nM.

**Q.** `Cc1ccc(-n2nc(C(C)(C)C)cc2NC(=O)Nc2cccc(Oc3ccnc4[nH]c(=O)cnc34)c2)cc1` [AA-006, 1-(3-tert-butyl-1-p-tolyl-1H-pyrazol-5-yl)-3-(3-(3-oxo-3,4-dihydropyrido[2,3-b]pyrazin-8-yloxy)phenyl)urea] was tested. Which IC50 did it give?
**A.** Its IC50 is less than 100 nM.

**Q.** Which IC50 does the source give for `CC(C)(C)c1cc(NC(=O)Nc2ccc(Oc3ccnc4[nH]c(=O)cnc34)c3ccccc23)n(-c2ccccc2)n1` [AA-008, 1-(3-tert-butyl-1-phenyl-1H-pyrazol-5-yl)-3-(4-(3-oxo-3,4-dihydropyrido[2,3-b]pyrazin-8-yloxy)naphthalen-1-yl)urea] here?
**A.** Its IC50 is less than 100 nM.

**Q.** How did the IC50 turn out when `Cc1nc2c(Oc3ccc(NC(=O)Nc4cc(C(C)(C)C)nn4-c4ccccc4)c4ccccc34)ccnc2[nH]c1=O` [AA-009, 1-(3-tert-butyl-1-phenyl-1H-pyrazol-5-yl)-3-(4-(2-methyl-3-oxo-3,4-dihydropyrido[2,3-b]pyrazin-8-yloxy)naphthalen-1-yl)urea] was run?
**A.** The IC50 was less than 100 nM.

**Q.** `Cc1ccc(-n2nc(C(C)(C)C)cc2NC(=O)Nc2ccc(Oc3ccnc4[nH]c(=O)cnc34)c3ccccc23)cc1` [AA-010, 1-(3-tert-butyl-1-p-tolyl-1H-pyrazol-5-yl)-3-(4-(3-oxo-3,4-dihydropyrido[2,3-b]pyrazin-8-yloxy)naphthalen-1-yl)urea] was tested. Which IC50 did it give?
**A.** The IC50 was less than 100 nM.

**Q.** `Cc1ccc(-n2nc(C(C)(C)C)cc2NC(=O)Nc2ccc(Oc3ccnc4[nH]c(=O)c(C)nc34)c3ccccc23)cc1` [AA-011, 1-(3-tert-butyl-1-p-tolyl-1H-pyrazol-5-yl)-3-(4-(2-methyl-3-oxo-3,4-dihydropyrido[2,3-b]pyrazin-8-yloxy)naphthalen-1-yl)urea] was tested. Which IC50 did it give?
**A.** Its IC50 is less than 100 nM.

**Q.** Which IC50 does the source give for `Cc1nc2c(Oc3ccc(NC(=O)Nc4cc(C(F)(F)F)ccc4F)c4ccccc34)ccnc2[nH]c1=O` [AA-014, 1-(2-fluoro-5-(trifluoromethyl)phenyl)-3-(4-(2-methyl-3-oxo-3,4-dihydropyrido[2,3-b]pyrazin-8-yloxy)naphthalen-1-yl)urea] here?
**A.** The IC50 was less than 100 nM.

**Q.** Which IC50 does the source give for `Nc1nc2c(Oc3ccc(NC(=O)Nc4cc(C(F)(F)F)ccc4F)c4ccccc34)ccnc2[nH]c1=O` [AA-015, 1-(4-(2-amino-3-oxo-3,4-dihydropyrido[2,3-b]pyrazin-8-yloxy)naphthalen-1-yl)-3-(2-fluoro-5-(trifluoromethyl)phenyl)urea] here?
**A.** Its IC50 is less than 100 nM.

**Q.** With `Cc1ccc(-n2nc(C(C)(C)C)cc2NC(=O)Nc2ccc(Oc3ccnc4[nH]c(=O)cnc34)cc2)cc1` [AA-016, 1-(3-tert-butyl-1-p-tolyl-1H-pyrazol-5-yl)-3-(4-(3-oxo-3,4-dihydropyrido[2,3-b]pyrazin-8-yloxy)phenyl)urea] as the molecule, how does the IC50 read?
**A.** The IC50 was < 1000 nM and 100 to 1000 nM and 252 nM.

**Q.** Which IC50 does the source give for `CSc1cc(Oc2ccnc3[nH]c(=O)cnc23)ccc1NC(=O)Nc1cc(C(C)(C)C)nn1-c1ccc(C)cc1` [AA-017, 1-(3-tert-butyl-1-p-tolyl-1H-pyrazol-5-yl)-3-(2-(methylthio)-4-(3-oxo-3,4-dihydropyrido[2,3-b]pyrazin-8-yloxy)phenyl)urea] here?
**A.** Its IC50 is less than 100 nM.

**Q.** How did the IC50 turn out when `Cc1ccc(-n2nc(C(C)(C)C)cc2NC(=O)Nc2ccc(Oc3ccnc4[nH]c(=O)cnc34)cc2F)cc1` [AA-018, 1-(3-tert-butyl-1-p-tolyl-1H-pyrazol-5-yl)-3-(2-fluoro-4-(3-oxo-3,4-dihydropyrido[3,2-b]pyrazin-8-yloxy)phenyl)urea] was run?
**A.** Its IC50 is less than 100 nM.

**Q.** `CC(C)(C)c1cc(NC(=O)Nc2ccc(Oc3ccnc4[nH]c(=O)cnc34)cc2F)n(-c2ccccc2)n1` [AA-019, 1-(3-tert-butyl-1-phenyl-1H-pyrazol-5-yl)-3-(2-fluoro-4-(3-oxo-3,4-dihydropyrido[3,2-b]pyrazin-8-yloxy)phenyl)urea] was tested. Which IC50 did it give?
**A.** Its IC50 is less than 100 nM.

**Q.** For `O=C(Nc1ccc(Oc2ccnc3[nH]c(=O)cnc23)cc1)Nc1ccc(Cl)c(C(F)(F)F)c1` [AA-020, 1-(4-chloro-3-(trifluoromethyl)phenyl)-3-(4-(3-oxo-3,4-dihydropyrido[2,3-b]pyrazin-8-yloxy)phenyl)urea], which IC50 is on record?
**A.** The IC50 was less than 100 nM.

**Q.** How did the IC50 turn out when `Nc1nc2nccc(Oc3ccc(NC(=O)Nc4cc(C(F)(F)F)ccc4F)c(F)c3)c2[nH]c1=O` [AA-022, 1-(4-(3-amino-2-oxo-1,2-dihydropyrido[2,3-b]pyrazin-8-yloxy)-2-fluorophenyl)-3-(2-fluoro-5-(trifluoromethyl)phenyl)urea] was run?
**A.** Its IC50 is < 1000 nM and 100 to 1000 nM.

**Q.** How did the IC50 turn out when `CSc1cc(Oc2ccnc3[nH]c(=O)cnc23)ccc1NC(=O)Nc1ccc(Cl)c(C(F)(F)F)c1` [AA-023] was run?
**A.** Its IC50 is less than 100 nM.

**Q.** With `CSc1cc(Oc2ccnc3[nH]c(=O)cnc23)ccc1NC(=O)Nc1cc(C(F)(F)F)ccc1F` [AA-024, 1-(2-fluoro-5-(trifluoromethyl)phenyl)-3-(2-(methylthio)-4-(3-oxo-3,4-dihydropyrido[3,2-b]pyrazin-8-yloxy)phenyl)urea] as the molecule, how does the IC50 read?
**A.** Its IC50 is less than 100 nM.

**Q.** For `O=C(Nc1ccc(Cl)c(C(F)(F)F)c1)Nc1ccc(Oc2ccnc3[nH]c(=O)cnc23)cc1F` [AA-025, 1-(4-Chloro-3-(trifluoromethyl)phenyl)-3-(2-fluoro-4-(3-oxo-3,4-dihydropyrido[2,3-b]pyrazin-8-yloxy)phenyl)urea], which IC50 is on record?
**A.** Its IC50 is less than 100 nM.

**Q.** `O=C(Nc1ccc(Oc2ccnc3[nH]c(=O)cnc23)cc1F)Nc1cc(C(F)(F)F)ccc1F` [AA-026, 1-(2-Fluoro-5-(trifluoromethyl)phenyl)-3-(2-fluoro-4-(3-oxo-3,4-dihydropyrido[2,3-b]pyrazin-8-yloxy)phenyl)urea] was tested. Which IC50 did it give?
**A.** The IC50 was less than 100 nM.

**Q.** For `O=C(Nc1ccc(Sc2ccnc3[nH]c(=O)cnc23)cc1)Nc1cc(C(F)(F)F)ccc1F` [AA-027, 1-(2-Fluoro-5-(trifluoromethyl)phenyl)-3-(4-(3-oxo-3,4-dihydropyrido[2,3-b]pyrazin-8-ylthio)phenyl)urea], which IC50 is on record?
**A.** Its IC50 is less than 100 nM.

**Q.** `Cc1nc2c(Oc3ccc(NC(=O)Nc4cc(C(F)(F)F)ccc4F)c(F)c3)ccnc2[nH]c1=O` [AA-028, 1-(2-Fluoro-4-(2-methyl-3-oxo-3,4-dihydropyrido[2,3-b]pyrazin-8-yloxy)phenyl)-3-(2-fluoro-5-(trifluoromethyl)phenyl)urea] was tested. Which IC50 did it give?
**A.** The IC50 was less than 100 nM.

**Q.** Which IC50 does the source give for `CC(C)(C)c1cccc(C(=O)Nc2cccc(Oc3ccnc4ncc(=O)[nH]c34)c2)c1` [AA-029, 3-tert-butyl-N-(3-(2-oxo-1,2-dihydropyrido[2,3-b]pyrazin-8-yloxy)phenyl)benzamide] here?
**A.** The IC50 was less than 100 nM.

**Q.** Which IC50 does the source give for `O=C(Nc1cccc(Oc2ccnc3ncc(=O)[nH]c23)c1)c1cccc(OC(F)(F)F)c1` [AA-030, N-(3-(2-oxo-1,2-dihydropyrido[2,3-b]pyrazin-8-yloxy)phenyl)-3-(trifluoromethoxy)benzamide] here?
**A.** The IC50 was < 1000 nM and 100 to 1000 nM.

**Q.** How did the IC50 turn out when `Cc1ccc(-n2nc(C(C)(C)C)cc2NC(=O)Nc2cccc(Oc3ccnc4ncc(=O)[nH]c34)c2)cc1` [AA-031, 1-(3-tert-butyl-1-p-tolyl-1H-pyrazol-5-yl)-3-(3-(2-oxo-1,2-dihydropyrido[2,3-b]pyrazin-8-yloxy)phenyl)urea] was run?
**A.** The IC50 was < 1000 nM and 100 to 1000 nM.

**Q.** `O=C(Nc1cccc(Oc2ccnc3ncc(=O)[nH]c23)c1)Nc1cc(C(F)(F)F)ccc1F` [AA-032, 1-(2-fluoro-5-(trifluoromethyl)phenyl)-3-(3-(2-oxo-1,2-dihydropyrido[2,3-b]pyrazin-8-yloxy)phenyl)urea] was tested. Which IC50 did it give?
**A.** The IC50 was less than 100 nM.

**Q.** With `CC(C)(C)c1cc(NC(=O)Nc2ccc(Oc3ccnc4ncc(=O)[nH]c34)c3ccccc23)n(-c2ccccc2)n1` [AA-034, 1-(3-tert-butyl-1-phenyl-1H-pyrazol-5-yl)-3-(4-(2-oxo-1,2-dihydropyrido[2,3-b]pyrazin-8-yloxy)naphthalen-1-yl)urea] as the molecule, how does the IC50 read?
**A.** Its IC50 is < 1000 nM and 100 to 1000 nM.
